In one assay the test system is female NMRI mice. Description: Body weight gain induced by olanzapine or clozapine in mice, 15 days. The format is in vivo, mouse. The note with it: agent alone p.o. for 15 days (olanzapine 0.5, clozapine 1, BGP-15 10 mg/kg); between first and 15th day; control 2.98 g. On the procedure:
Groups of female NMRI mice were treated with vehicle (control group) and the agents to be tested for 15 days, perorally. Each group consisted of 10 animals fed with normal laboratory chow and tap water ad libitum. Treatments were performed between 5 and 6 pm, shortly before the dark phase, the primary feeding period of the day. Olanzapine was administered in a dose of 0.5 mg/kg, while clozapine was administered in a dose of 1 mg/kg to induce body weight gain.

Assay [1] relates to female Wistar rats. Description: Body weight gain induced by olanzapine in rats, 28 days. The format is in vivo, rat. The note with it: for Body weight (average in the group): day 28, control 255 g. As to the method:
Groups of female Wistar rats were treated with vehicle (control group) and the agents to be tested for 28 days. Each group consisted of 6 animals fed with normal laboratory chow and tap water ad libitum. The agents to be tested were administered twice daily, at 8 h and 18 h, perorally. The antipsychotic olanzapine was administered in a dose of 1 mg/kg to induce body weight gain.

Assay [2] deals with female Wistar rats. Kind of assay: Body weight gain induced by risperidone in rats, 21 days. In kind it is in vivo, rat. The note with it: for Body weight gain: day 21, control 27 g. On the procedure: The experiments were carried out in eight-week-old female Wistar rats. Each test group consisted of 10 animals fed with normal laboratory chow and tap water ad libitum. The animals were treated with vehicle (control group) and the compounds to be tested for 21 days. In this experimental system, the antipsychotic risperidone was injected subcutaneously once daily in doses of 0.005 and 0.05 mg/kg, respectively to induce body weight gain.

[3] abbreviates: agent alone, p.o. twice daily for 28 days (olanzapine 1, BGP-15 10, metformin 100, rosiglitazone 3 mg/kg), starting weight 171 g.
The mark [4] stands for this setting: agent together with olanzapine 1 mg/kg, p.o. twice daily for 28 days (BGP-15 10, metformin 100, rosiglitazone 3 mg/kg), olanzapine alone 330 g.

With `Cc1cc2c(s1)Nc1ccccc1N=C2N1CCN(C)CC1` [Olanzapine, 2-methyl-4-(4-methyl-1-piperazinyl)-10H-thieno[2,3-b][1,5]-benzodiazepine], in the assay on female NMRI mice, the “Body weight gain (average in the group)” value was found to be 3.5 g. The “effect on average weight relative to the control group” value with female Wistar rats [1] (agent alone, 28 days) is given as “high average weight relative to the control group”. In addition, the “Body weight (average in the group)” value in the assay on female Wistar rats [1] (setting [3]) was determined as 330 g.
With `CN(CCOc1ccc(CC2SC(=O)NC2=O)cc1)c1ccccn1` (stereo not shown) [Rosiglitazone, rosiglitazone], the “Body weight (average in the group)” value was found to be 284 g in the assay on female Wistar rats [1] (setting [3]) and 359 g in the assay with female Wistar rats [1] (setting [4]).
`CN1CCN(C2=Nc3cc(Cl)ccc3Nc3ccccc32)CC1` [Clozapine, 8-chloro-11-(4-methyl-1-piperazinyl)-5H-dibenzo[b,e][1,4]diazepine]: the “Body weight gain (average in the group)” value in the assay with female NMRI mice is on record as 4.11 g.
On to `Cc1nc2n(c(=O)c1CCN1CCC(c3noc4cc(F)ccc34)CC1)CCCC2` [Risperidone, risperidone], for which, in the assay on female Wistar rats [2] (agent alone, 21 days), the “effect on body weight gain relative to the control group” value is given as “increased body weight gain relative to the control group”. Moreover, the Body weight gain worked out at 39.7 g in the assay on female Wistar rats [2] (risperidone alone 0.005 mg/kg s.c. once daily) and 41 g in the assay with female Wistar rats [2] (risperidone alone 0.05 mg/kg s.c. once daily).
`CN(C)C(=N)N=C(N)N` [Metformin, metformin]: in the assay on female Wistar rats [1] (agent alone, 28 days), the “effect on average weight relative to the control group” value is given as “somewhat higher average weight relative to the control group”. Further, the figures for the “Body weight (average in the group)” value with female Wistar rats [1] (setting [3]) and with female Wistar rats [1] (setting [4]) were 266 g and 331 g, respectively. Besides, the “effect on the weight gain induced by olanzapine” value in the assay with female Wistar rats [1] (agent together with olanzapine 1 mg/kg, 28 days) was “did not reduce”.

These data come from patent US7763601B2, “Prevention and treatment of obesity” (N-Gene Research Laboratories, Inc., priority 2006, dated 2010).
